From patent US11780826B2 (Amgen Inc., priority 2017, dated 2023) come the findings set out here.

The test relates to Bovine cardiac myofibrils. The test is described as follows: In vitro model of dose-dependent myofibril ATPase modulation (AC1.4, pyruvate kinase/lactate dehydrogenase-coupled ATPase assay at pCa25). Conditions: concentration at which ATPase activity was 1.4-fold higher than the bottom of the dose curve, mean of a minimum of two independent tests. Type of test: biochemical. In short, it runs like this:
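ATP turnover tracked as NADH absorbance loss at 340 nm, coupled via pyruvate kinase/lactate dehydrogenase, with 1 mM ATP, 2 mM MgCl2 and 12 mM K-PIPES at pH 6.80 (22° C) under EGTA/CaCl2 calcium buffering. Substrate was detergent-treated bovine cardiac myofibrils; 4-parameter curve fit, AC1.4 averaged over at least two runs.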

For the compound `NC(=O)C1(c2cccc(C(=O)N3[C@@H](C(=O)N[C@@H](c4cc(F)c(Cl)cc4F)C4COC4)C[C@H]4C[C@H]43)c2)CC1` [Example 184, (1R,3R,5R)-2-(3-(1-carbamoylcyclopropyl)benzoyl)-N-((R)-(4-chloro-2,5-difluorophenyl)(3-oxetanyl)methyl)-2-azabicyclo[3.1.0]hexane-3-carboxamide], the AC1.4 amounted to 0.3365 µM.
Consider `CC(C)[C@@H](NC(=O)[C@H]1CCCN1C(=O)c1cccc(S(=O)(=O)N(C)C)c1)c1ccc(C(F)(F)F)cc1F` [Example 185, 1-(3-(dimethylsulfamoyl)benzoyl)-N-((1R)-1-(2-fluoro-4-(trifluoromethyl)phenyl)-2-methylpropyl)-D-prolinamide], for which the AC1.4 worked out at 0.3371 µM.
The figure for `CC(C)(C)Nc1ccc(S(C)(=O)=O)cc1C(=O)N1CCC[C@@H]1C(=O)N[C@@H](c1ccc(C(F)(F)F)cc1F)C1CC1` [Example 186, N-((R)-cyclopropyl(2-fluoro-4-(trifluoromethyl)phenyl)methyl)-1-(2-((2-methyl-2-propanyl)amino)-5-(methylsulfonyl)benzoyl)-D-prolinamide] is 0.3372 µM; for `N#CC1CN(S(=O)(=O)N2CCO[C@H](C(=O)N3CCC[C@@H]3C(=O)NCc3ccc(Cl)cc3F)C2)C1` [Example 187, N-(4-chloro-2-fluorobenzyl)-1-(((2S)-4-((3-cyano-1-azetidinyl)sulfonyl)-2-morpholinyl)carbonyl)-D-prolinamide] it is 0.3409 µM; for `N#CC1CN(S(=O)(=O)c2cccc(C(=O)N3CCC[C@@H]3C(=O)N[C@@H](CO)c3ccc(C(F)(F)F)cc3)c2)C1` [Example 188, 1-(3-((3-cyano-1-azetidinyl)sulfonyl)benzoyl)-N-((1R)-2-hydroxy-1-(4-(trifluoromethyl)phenyl)ethyl)-D-prolinamide] it is 0.3496 µM.
To `N#CC1CN(S(=O)(=O)N2CC3CC2[C@@H](C(=O)N2CCC[C@@H]2C(=O)NCc2ccc(C(F)(F)F)cc2F)C3)C1` (stereo partly drawn) [Example 189, 1-((2-((3-cyano-1-azetidinyl)sulfonyl)-2-azabicyclo[2.2.1]hept-6-yl)carbonyl)-N-(2-fluoro-4-(trifluoromethyl)benzyl)-D-prolinamide] belongs 0.3524 µM.
To `N#CC1CN(S(=O)(=O)c2cccc(C(=O)N3CCC[C@@H]3C(=O)NCc3cccc(Cl)c3)c2)C1` [Example 190, N-(3-chlorobenzyl)-1-((3-((3-cyano-1-azetidinyl)sulfonyl)phenyl)carbonyl)-D-prolinamide] belongs 0.3569 µM; to `Cc1ccc(CNC(=O)[C@H]2CCCN2C(=O)[C@H]2CCCN(S(=O)(=O)N3CC(C#N)C3)C2)c(Cl)c1` [Example 191, N-(2-chloro-4-methylbenzyl)-1-(((3S)-1-((3-cyano-1-azetidinyl)sulfonyl)-3-piperidinyl)carbonyl)-D-prolinamide], 0.3593 µM.
In turn, `N#C[C@H]1CCN(S(=O)(=O)N2CCC[C@H](C(=O)N3CCC[C@@H]3C(=O)NCc3ccc(C(F)(F)F)cc3)C2)C1` [Example 192, 1-(((3S)-1-(((3S)-3-cyano-1-pyrrolidinyl)sulfonyl)-3-piperidinyl)carbonyl)-N-(4-(trifluoromethyl)benzyl)-D-prolinamide] gave an AC1.4 of 0.3628 µM.
In turn, `CS(=O)(=O)c1cccc(C(=O)N2[C@@H](C(=O)N[C@@H](c3ccc(C(F)(F)F)c(F)c3)C3COC3)C[C@H]3C[C@H]32)c1` [Example 193, (1R,3R,5R)-N-((R)-(3-fluoro-4-(trifluoromethyl)phenyl)(3-oxetanyl)methyl)-2-(3-(methylsulfonyl)benzoyl)-2-azabicyclo[3.1.0]hexane-3-carboxamide] gave an AC1.4 of 0.3676 µM.
The figure for `NS(=O)(=O)c1cccc(C(=O)N2CCCC[C@@H]2C(=O)N[C@@H](c2cc(F)c(Cl)cc2F)C2CC2)c1` [Example 194, (2R)-N-((R)-(4-chloro-2,5-difluorophenyl)(cyclopropyl)methyl)-1-(3-sulfamoylbenzoyl)-2-piperidinecarboxamide] is 0.385 µM.
`CC[C@H](NC(=O)[C@H]1CCCN1C(=O)[C@H]1CCCN(S(=O)(=O)N2CC(C#N)C2)C1)c1ccc(C(F)(F)F)cc1` [Example 195, 1-(((3S)-1-((3-cyano-1-azetidinyl)sulfonyl)-3-piperidinyl)carbonyl)-N-((1S)-1-(4-(trifluoromethyl)phenyl)propyl)-D-prolinamide] registered an AC1.4 of 0.3859 µM.
As for `C#CC1(O)CN(S(=O)(=O)N2CCC[C@H](C(=O)N3CCC[C@@H]3C(=O)NCc3ccc(C(F)(F)F)cc3F)C2)C1` [Example 196, 1 (((3S)-1-((3-ethynyl-3-hydroxy-1-azetidinyl)sulfonyl)-3-piperidinyl)carbonyl)-N-(2-fluoro-4-(trifluoromethyl)benzyl)-D-prolinamide], the AC1.4 was 0.3906 µM.
`CS(=O)(=O)c1cccc(C(=O)N2[C@@H](C(=O)N[C@@H](c3cc(F)c(C(F)F)cc3F)C3CC3)C[C@H]3C[C@H]32)c1` [Example 197, (1R,3R,5R)-N-((R)-cyclopropyl(4-(difluoromethyl)-2,5-difluorophenyl)methyl)-2-(3-(methylsulfonyl)benzoyl)-2-azabicyclo[3.1.0]hexane-3-carboxamide] gave an AC1.4 of 0.3963 µM.
`N#CC1CN(S(=O)(=O)N2CCC[C@H](C(=O)N3CCC[C@@H]3C(=O)N[C@@H](c3ccc(C(F)(F)F)cc3)C(F)(F)F)C2)C1` [Example 198, 1-(((3S)-1-((3-cyano-1-azetidinyl)sulfonyl)-3-piperidinyl)carbonyl)-N-((1S)-2,2,2-trifluoro-1-(4-(trifluoromethyl)phenyl)ethyl)-D-prolinamide] gave an AC1.4 of 0.4034 µM.
With `O=C(NCc1ccc(C(F)(F)F)cc1F)[C@H]1CCCN1C(=O)[C@H]1CCCN(S(=O)(=O)N2CC(O)(C3CC3)C2)C1` [Example 199, 1-(((3S)-1-((3-cyclopropyl-3-hydroxy-1-azetidinyl)sulfonyl)-3-piperidinyl)carbonyl)-N-(2-fluoro-4-(trifluoromethyl)benzyl)-D-prolinamide], the AC1.4 was 0.4078 µM.
As to `CS(=O)(=O)c1cccc(C(=O)N2C[C@@H](F)C[C@@H]2C(=O)N[C@@H](c2cc(F)c(Cl)cc2F)C2CC2)c1` [Example 201, (4S)-N-((R)-(4-chloro-2,5-difluorophenyl)(cyclopropyl)methyl)-4-fluoro-1-(3-(methylsulfonyl)benzoyl)-D-prolinamrde], the AC1.4 came out at 0.411 µM.
The figure for `CS(=O)(=O)c1ccnc(C(=O)N2[C@@H](C(=O)N[C@@H](c3cc(F)c(Cl)cc3F)C3CC3)C[C@H]3C[C@H]32)c1` [Example 202, (1R,3R,5R)-N-((R)-(4-chloro-2,5-difluorophenyl)(cyclopropyl)methyl)-2-((4-(methylsulfonyl)-2-pyridinyl)carbonyl)-2-azabicyclo[3.1.0]hexane-3-carboxamide] is 0.4116 µM.
Compound `O=C(NCc1ccc(C(F)(F)F)cc1)[C@H]1CCCN1C(=O)[C@H]1CCCN(S(=O)(=O)N2CC(n3ccnn3)C2)C1` [Example 203, 1-(((3S)-1-((3-(1H-l,2,3-triazol-1-yl)-1-azetidinyl)sulfonyl)-3-piperidinyl)carbonyl)-N-(4-(trifluoromethyl)benzyl)-D-prolinamide] returned an AC1.4 of 0.4299 µM.
In the case of `CC[C@H](NC(=O)[C@H]1CCCN1C(=O)c1cccc(S(=O)(=O)N2CC(C#N)C2)c1)c1ccc(C(F)(F)F)cc1F` [Example 204, 1-(3-((3-cyano-1-azetidinyl)sulfonyl)benzoyl)-N-((1S)-1-(2-fluoro-4-(trifluoromethyl)phenyl)propyl)-D-prolinamide], the AC1.4 was determined as 0.4305 µM.
To `C[C@@H](NC(=O)[C@H]1CCCN1C(=O)c1cccc(S(=O)(=O)N2CC(C#N)C2)c1)c1cc(F)cc(F)c1` [Example 205, 1-(3-((3-cyano-1-azetidinyl)sulfonyl)benzoyl)-N-((1R)-1-(3,5-difluorophenyl)ethyl)-D-prolinamide] belongs 0.4322 µM; to `N#CC1CN(S(=O)(=O)N2CCC[C@H](C(=O)N3CCC[C@@H]3C(=O)NCc3cccc(Cl)c3Cl)C2)C1` [Example 206, 1-(((3S)-1-((3-cyano-1-azetidinyl)sulfonyl)-3-piperidinyl)carbonyl)-N-(2,3-dichlorobenzyl)-D-prolinamide], 0.4338 µM.
The figure for `CS(=O)(=O)c1cccc(C(=O)N2[C@@H](C(=O)N[C@@H](c3ccc(Cl)cc3F)C3COC3)C[C@H]3C[C@H]32)c1` [Example 207, (1R,3R,5R)-N-((R)-(4-chloro-2-fluorophenyl)(3-oxetanyl)methyl)-2-(3-(methylsulfonyl)benzoyl)-2-azabicyclo[3.1.0]hexane-3-carboxamide] is 0.4436 µM; for `CC(O)(c1cccc(C(=O)N2CCCC[C@@H]2C(=O)N[C@@H](c2ccc(C(F)(F)F)cc2F)C2CC2)c1)C(F)(F)F` (stereo partly drawn) [Example 208, (2R)-N-((R)-cyclopropyl(2-fluoro-4-(trifluoromethyl)phenyl)methyl)-1-(3-(-1,1,1-trifluoro-2-hydroxy-2-propanyl)benzoyl)-2-piperidinecarboxamide] it is 0.4457 µM.
The figure for `C[C@H](C(=O)N[C@H](C)c1ccc(C(F)(F)F)cc1F)N(C)C(=O)[C@H]1CCCN(S(=O)(=O)N2CC(C#N)C2)C1` [Example 209, (3S)-1-((3-cyano-1-azetidinyl)sulfonyl)-N-((2R)-1-(((1R)-1-(2-fluoro-4-(trifluoromethyl)phenyl)ethyl)amino)-1-oxo-2-propanyl)-N-methyl-3-piperidinecarboxamide] is 0.4473 µM.
Compound `O=C(NCc1ccc(C(F)(F)F)cc1)[C@H]1CCCN1C(=O)[C@H]1CCCN(S(=O)(=O)N2CC(OCc3ccc(Cl)cc3)C2)C1` [Example 210, 1-(((3S)-1-((3-((4-chlorobenzyl)oxy)-1-azetidinyl)sulfonyl)-3-piperidinyl)carbonyl)-N-(4-(trifluoromethyl)benzyl)-D-prolinamide] returned an AC1.4 of 0.4487 µM.
